Measured values: patent US20240368667A1, “RAPID, LABEL-FREE ANTIBIOTIC SUSCEPTIBILITY OF BACTERIA DIRECTLY FROM POSITIVE BLOOD OR BODILY FLUID/CULTURE” (priority 2021, published 2024)
In brackets after ≈: the same amount, converted by molar mass. One block for each compound: values may come before it.

What was measured:
[1] = test system: E. coli 79; assay: Microbroth dilution MIC with and without sucrose recovery; type: cell-based, Escherichia coli; conditions: MIC given as multiple of S/I/R; for minimum inhibitory concentration (MIC), Standard: E. coli 79 recovered by standard plating
Experimental: (§1) Microbroth dilution for minimum inhibitory concentrations (MIC) with and without sucrose recovery. To isolate bacteria without sucrose, culture media from positive BacT/alert FA PLUS aerobic culture bottles (bioMérieux, Durham, NC) was serially diluted and plated onto LB agar (Lennox; Sigma-Aldrich, St. Louis, MO). Bacterial suspensions were prepared by resuspending colonies in CAMHB with incubation on a MaxQ 4000 incubator shaker (Thermo Fisher Scientific, Waltham, MA) at 37° C. and ˜225 rpm for 3 hours. Bacteria recovered via Method 2 were diluted 10-fold in CAMHB. Following incubation or sucrose recovery and dilution, bacterial suspensions were adjusted to ˜0.004 OD600 with CAMHB and a 50-μL aliquot distributed to each well of a 96-well plate containing CAMHB with and without clinically relevant antibiotics (2-fold dilution series). Gram-negative plates included: ceftazidime (3rd generation cephalosporin, RPI corp., Mount Prospect, IL), cefepime (4th generation cephalosporin, Chem-Impex Int'l, Wood Dale, IL), meropenem (carbapenem, Tokyo Chemical Industry, Tokyo, Japan), levofloxacin (quinolone, Alfa Aesar, Haverhill, MA), and tobramycin (aminoglycoside, MP Biomedicals LLC, Santa Ana, CA), while S. aureus plates contained: oxacillin (beta-lactam, Sigma-Aldrich, St. Louis, MO), vancomycin (glycopeptide, Santa Cruz Biotechnology, Dallas, TX), erythromycin (macrolide, Sigma-Aldrich, St. Louis, MO), clindamycin ([…]), and ciprofloxacin (fluoroquinolone, Sigma-Aldrich, St. Louis, MO). Antibiotic plates were incubated at 37° C. for 16-20 hours (gram-negative) or 35° C. for 24 hours (S. aureus), at which time, plates were removed from the incubator and visually inspected for bacterial growth. The MIC was set at the lowest antibiotic concentration at which no growth was detected.
(§2) Influence of Sucrose on Bacterial MIC. To rule out the potential effect of sucrose exposure in bacterial antibiotic susceptibility, microbroth dilution studies were performed on bacteria recovered using standard practices (i.e. plating following positive blood culture) and through selective lysis coupled with centrifugation through the sucrose cushion (Method 2).

[2] = test system: P. aeruginosa 77; assay: as above; type: cell-based, Pseudomonas aeruginosa; conditions: MIC given as multiple of S/I/R
Experimental: as §1, §2

[3] = test system: S. aureus 78; assay: as above; type: cell-based, Staphylococcus aureus; conditions: MIC given as multiple of S/I/R; for minimum inhibitory concentration (MIC), Standard: S. aureus 78 recovered by standard plating; for minimum inhibitory concentration (MIC), Sucrose: S. aureus 78 recovered through sucrose (Method 2)
Experimental: as §1, §2

[4] = test system: S. aureus; assay: Direct flow cytometric AST (high-throughput flow cytometry, HTFC) of sucrose-recovered bacteria; type: cell-based, Staphylococcus aureus; conditions: for MIC: Staphylococcus aureus
Experimental: AST workflow using bacteria recovered directly from positive blood culture. A 1-mL aliquot of bacteria recovered using separation method 2 was diluted 10-fold in CAMHB, the OD600 adjusted to ˜0.01, and a 50 μL aliquot distributed into each well of a 96-well plate containing CAMHB with and without ceftazidime, tobramycin, and either meropenem (E. coli and P. aeruginosa) or oxacillin (S. aureus). Following Clinical and Laboratory Standards Institute (CLSI) guidelines^33, 2% sodium chloride (NaCl) was present in wells containing oxacillin to assist in the detection of methicillin-resistant S. aureus (MRSA). […] To account for observed differences in doubling and lag times, E. coli and P. aeruginosa were incubated for 4 hours at 37° C., while S. aureus was incubated for 9 hours at 35° C. After incubation, antibiotic plates were removed from the incubator and directly stored on ice (i.e. no post-processing) until high-throughput flow cytometry (BD LSRFortessa with HTS-system, BD, Franklin Lakes, NJ). No-antibiotic controls and antibiotic-treated samples were handled identically.
MIC Determination by flow cytometry. Because antibiotic effects are observed in both the position of scatter signatures (morphology changes) and count rates (growth inhibition), a modified count rate, accounting for scatter position, was used to evaluate susceptibility. Briefly, no-antibiotic control populations (triplicate) were pooled, binned, and a convex hull boundary set at 1-standard deviation above the background (not including bins with zero counts) was drawn. […] The overlap ratio, measuring changes in morphology, was then computed by dividing the number of sample events within the no-antibiotic control boundary by the total number of events within the sample. As an increase in count rate attributed to viable bacteria in antibiotic-treated samples is not scientifically meaningful, the fractional overlap was multiplied by the minimum of the control and sample count rates to generate a modified count rate accounting for antibiotic-induced morphological changes. All modified count rates were normalized by the average of the no-antibiotic controls. For automatic MIC determination, normalized count rates corresponding to n (index of predicted MIC), n+1, n+2 were iteratively fit to a linear function with a frameshift of n+1 between iterations (FIGS. 8 and 9). […] A threshold of −0.01 instead of zero was used to mitigate the influence of small fluctuations in normalized count rates on susceptibility determinations.

[5] = test system: S. aureus; assay: Broth microdilution (BMD) MIC; type: cell-based, Staphylococcus aureus; conditions: for MIC: Staphylococcus aureus
Experimental: as §1

[6] = test system: E. coli; assay: Influence of sucrose on bacterial growth (OD600); type: cell-based, Escherichia coli; conditions: E. coli recovered in 55% sucrose (w/v), undiluted, 37° C. with shaking
Experimental: (§3) Influence of sucrose on bacterial growth. To determine the effects of sucrose concentration on bacterial growth, bacteria recovered from positive blood cultures following Method 2 were diluted 1-fold (i.e. undiluted), 2-fold, 5-fold, 10-fold, 20-fold, and 100-fold in fresh CAMHB within a 96-well plate. The CAMHB broth inoculated with a fresh overnight culture was used as a positive control. Following dilution, samples were incubated at 37° C. with shaking, and growth was monitored at 15-min intervals via OD600 measurements using a plate reader (Hidex, Turku, Finland). To further investigate the effects of sucrose on bacterial growth, recovered bacteria-sucrose solutions were diluted 10-fold (optimal dilution factor) and growth was compared to control cultures inoculated with the original blood culture, an overnight culture, or colony resuspension without sucrose exposure. Growth (37° C. with shaking) was monitored via OD600 measurements using a Hidex plate reader.
(§4) Impact of sucrose on bacterial growth. […] Recovered bacteria within 55% sucrose (w/v) were directly or 2-fold (27.5%), 5-fold (11%), 10-fold (5.5%), 20-fold (2.75%), and 100-fold (0.55%) diluted in CAMHB and growth monitored on a plate reader set at 37° C. with medium shaking. […]

[7] = test system: P. aeruginosa; assay: Influence of sucrose on bacterial growth (OD600); type: cell-based, Pseudomonas aeruginosa; conditions: P. aeruginosa recovered in 55% sucrose (w/v), undiluted, 37° C. with shaking
Experimental: as §3, §4

[8] = test system: S. aureus; assay: Influence of sucrose on bacterial growth (OD600); type: cell-based, Staphylococcus aureus; conditions: S. aureus recovered in 55% sucrose (w/v), undiluted, 37° C. with shaking
Experimental: as §3, §4

SMILES: CO/N=C(\C(=O)N[C@@H]1C(=O)N2C(C(=O)[O-])=C(C[N+]3(C)CCCC3)CS[C@H]12)c1csc(N)n1 [Cefepime, cefepime]
minimum inhibitory concentration (MIC), Standard [1]: 2R
minimum inhibitory concentration (MIC), Standard ([2]; P. aeruginosa 77 recovered by standard plating): ½S
minimum inhibitory concentration (MIC), Sucrose ([2]; P. aeruginosa 77 recovered through sucrose (Method 2)): ¼S

SMILES: Cc1onc(-c2ccccc2)c1C(=O)N[C@@H]1C(=O)N2[C@@H]1SC(C)(C)[C@@H]2C(=O)O [Oxacillin, oxacillin]
susceptibility classification, HTFC ([4]; S. aureus ATCC25923, oxacillin 9 hours (35° C.)): (MSSA)
susceptibility classification, HTFC ([4]; S. aureus ATCC29213, oxacillin 9 hours (35° C.)): (MSSA)
susceptibility classification, HTFC ([4]; S. aureus ATCC43300, oxacillin 9 hours (35° C.)): (MRSA)
susceptibility classification, HTFC ([4]; S. aureus Blood Culture A, oxacillin 9 hours (35° C.)): (MSSA)
susceptibility classification, HTFC ([4]; S. aureus Blood Culture B, oxacillin 9 hours (35° C.)): (MRSA)
susceptibility classification, HTFC ([4]; S. aureus NRS382, oxacillin 9 hours (35° C.)): MRSA
susceptibility classification, HTFC ([4]; S. aureus NRS385, oxacillin 9 hours (35° C.)): MRSA
MIC ([4]; 9 h, read-out: Minimum inhibitory concentration, HTFC, S. aureus Blood Culture A, oxacillin 9 hours (35° C.)): 0.125 µg/mL (≈ 0.311 µM)
MIC ([4]; 9 h, read-out: Minimum inhibitory concentration, HTFC, S. aureus Blood Culture B, oxacillin 9 hours (35° C.)): 4 µg/mL (≈ 9.96 µM)
MIC ([4]; ATCC25923, 9 h, read-out: Minimum inhibitory concentration, HTFC, S. aureus ATCC25923, oxacillin 9 hours (35° C.)): 0.25 µg/mL (≈ 0.623 µM)
MIC ([4]; ATCC29213, 9 h, read-out: Minimum inhibitory concentration, HTFC, S. aureus ATCC29213, oxacillin 9 hours (35° C.)): 2 µg/mL (≈ 4.98 µM)
MIC ([4]; ATCC43300, 9 h, read-out: Minimum inhibitory concentration, HTFC, S. aureus ATCC43300, oxacillin 9 hours (35° C.)): > 4 µg/mL
MIC ([4]; S. aureus NRS382, oxacillin 9 hours (35° C.), read-out: Minimum inhibitory concentration, HTFC): > 4 µg/mL
MIC ([4]; S. aureus NRS385, oxacillin 9 hours (35° C.), read-out: Minimum inhibitory concentration, HTFC): > 4 µg/mL
susceptibility classification, BMD ([5]; S. aureus ATCC25923): (MSSA)
susceptibility classification, BMD ([5]; S. aureus ATCC29213): (MSSA)
susceptibility classification, BMD ([5]; S. aureus ATCC43300): (MRSA)
susceptibility classification, BMD ([5]; S. aureus Blood Culture A): (MSSA)
susceptibility classification, BMD ([5]; S. aureus Blood Culture B): (MRSA)
susceptibility classification, BMD ([5]; S. aureus NRS382): (MRSA)
susceptibility classification, BMD ([5]; S. aureus NRS385): (MRSA)
MIC ([5]; ATCC25923, read-out: Minimum inhibitory concentration, BMD, S. aureus ATCC25923): 0.125 µg/mL (≈ 0.311 µM)
MIC ([5]; ATCC29213, read-out: Minimum inhibitory concentration, BMD, S. aureus ATCC29213): 0.25 µg/mL (≈ 0.623 µM)
MIC ([5]; ATCC43300, read-out: Minimum inhibitory concentration, BMD, S. aureus ATCC43300): 16 µg/mL (≈ 39.9 µM)
MIC ([5]; S. aureus NRS382, read-out: Minimum inhibitory concentration, BMD): > 16 µg/mL
MIC ([5]; S. aureus NRS385, read-out: Minimum inhibitory concentration, BMD): > 16 µg/mL
MIC ([5]; read-out: Minimum inhibitory concentration, BMD, S. aureus Blood Culture A): 0.125 µg/mL (≈ 0.311 µM)
MIC ([5]; read-out: Minimum inhibitory concentration, BMD, S. aureus Blood Culture B): > 16 µg/mL
minimum inhibitory concentration (MIC), Standard [3]: 4R
minimum inhibitory concentration (MIC), Sucrose [3]: 4R

SMILES: CN[C@H](CC(C)C)C(=O)N[C@H]1C(=O)N[C@@H](CC(N)=O)C(=O)N[C@H]2C(=O)N[C@H]3C(=O)N[C@H](C(=O)N[C@H](C(=O)O)c4cc(O)cc(O)c4-c4cc3ccc4O)[C@H](O)c3ccc(c(Cl)c3)Oc3cc2cc(c3O[C@@H]2O[C@H](CO)[C@@H](O)[C@H](O)[C@H]2O[C@H]2C[C@](C)(N)[C@H](O)[C@H](C)O2)Oc2ccc(cc2Cl)[C@H]1O [Vancomycin, vancomycin]
minimum inhibitory concentration (MIC), Standard [3]: ¼S
minimum inhibitory concentration (MIC), Sucrose [3]: ⅛S

SMILES: OC[C@H]1O[C@@](CO)(O[C@H]2O[C@H](CO)[C@@H](O)[C@H](O)[C@H]2O)[C@@H](O)[C@@H]1O [sucrose, D (+)-sucrose]
bacterial growth (OD600) [6]: inhibiting growth completely
bacterial growth (OD600) [7]: inhibiting growth completely
bacterial growth (OD600) [8]: inhibiting growth completely

Other lines, results leading:

minimum inhibitory concentration (MIC), Standard [3]: 4R
minimum inhibitory concentration (MIC), Sucrose [3]: 4R
SMILES: CCC[C@@H]1C[C@@H](C(=O)N[C@@H]([C@H]2O[C@H](SC)[C@H](O)[C@@H](O)[C@H]2O)[C@H](C)Cl)N(C)C1 [Clindamycin, clindamycin]

minimum inhibitory concentration (MIC), Standard [3]: 4R
minimum inhibitory concentration (MIC), Sucrose [3]: 2R
SMILES: CC[C@H]1OC(=O)[C@H](C)[C@@H](O[C@H]2C[C@@](C)(OC)[C@@H](O)[C@H](C)O2)[C@H](C)[C@@H](O[C@@H]2O[C@H](C)C[C@H](N(C)C)[C@H]2O)[C@](C)(O)C[C@@H](C)C(=O)[C@H](C)[C@@H](O)[C@]1(C)O [Erythromycin, erythromycin]

minimum inhibitory concentration (MIC), Standard [1]: >4R
minimum inhibitory concentration (MIC), Sucrose ([1]; E. coli 79 recovered through sucrose (Method 2)): 4R
SMILES: C[C@H]1COc2c(N3CCN(C)CC3)c(F)cc3c(=O)c(C(=O)O)cn1c23 [Levofloxacin, levofloxacin]
